Reference: the NIST ThermoML archive (doi:10.1021/je800046k)
± gives the expanded uncertainty stated by the source.

Tests used:
[1] = for surface tension liquid-gas: Pendant drop shape; for mass density: 101 kPa, Liquid
[2] = xn = mol fraction of the nth substance listed; conditions: for surface tension liquid-gas: Pendant drop shape; for mass density: 101 kPa, Liquid

Row | Compound | surface tension liquid-gas ([1]; 298.15 K) | mass density ([1]; 298.15 K) | surface tension liquid-gas ([1]; 308.15 K) | mass density ([1]; 308.15 K) | surface tension liquid-gas ([1]; 313.15 K) | mass density ([1]; 313.15 K) | also measured
1 | Cc1ccc(C)c(C)c1 [1,2,4-trimethylbenzene] | 29.3 ± 0.33 mN/m | 871.71 ± 0.54 kg/m3 | 28.24 ± 0.32 mN/m | 863.68 ± 0.56 kg/m3 | 27.71 ± 0.31 mN/m | 859.58 ± 0.56 kg/m3 | –
2 | Cc1ccc(C)c(C)c1 [1,2,4-trimethylbenzene] + CC(=O)OCC(C)C | – | – | – | – | – | – | surface tension liquid-gas ([2]; 298.15 K, x2 = 0): 29.3 ± 0.33 mN/m; mass density ([2]; 298.15 K, x2 = 0): 871.71 ± 0.54 kg/m3; surface tension liquid-gas ([2]; 308.15 K, x2 = 0): 28.24 ± 0.32 mN/m; mass density ([2]; 308.15 K, x2 = 0): 863.68 ± 0.56 kg/m3; surface tension liquid-gas ([2]; 313.15 K, x2 = 0): 27.71 ± 0.31 mN/m; mass density ([2]; 313.15 K, x2 = 0): 859.58 ± 0.56 kg/m3
3 | Cc1cc(C)cc(C)c1 [1,3,5-trimethylbenzene] | 28.05 ± 0.31 mN/m | 861.12 ± 0.41 kg/m3 | 27.21 ± 0.3 mN/m | 852.94 ± 0.42 kg/m3 | 26.78 ± 0.3 mN/m | 848.82 ± 0.43 kg/m3 | –
4 | Cc1cc(C)cc(C)c1 [1,3,5-trimethylbenzene] + CC(=O)OCC(C)C | – | – | – | – | – | – | surface tension liquid-gas ([2]; 298.15 K, x2 = 0): 28.05 ± 0.31 mN/m; mass density ([2]; 298.15 K, x2 = 0): 861.12 ± 0.53 kg/m3; surface tension liquid-gas ([2]; 308.15 K, x2 = 0): 27.21 ± 0.3 mN/m; mass density ([2]; 308.15 K, x2 = 0): 852.94 ± 0.55 kg/m3; surface tension liquid-gas ([2]; 313.15 K, x2 = 0): 26.78 ± 0.3 mN/m; mass density ([2]; 313.15 K, x2 = 0): 848.82 ± 0.56 kg/m3
5 | CC(=O)OC(C)C [1-methylethyl ethanoate] | 21.89 ± 0.25 mN/m | 866.25 ± 0.44 kg/m3 | 20.81 ± 0.24 mN/m | 854.54 ± 0.46 kg/m3 | 20.29 ± 0.24 mN/m | 848.61 ± 0.47 kg/m3 | –
6 | CC(=O)OC(C)C [1-methylethyl ethanoate] + Cc1cc(C)cc(C)c1 | – | – | – | – | – | – | surface tension liquid-gas ([2]; 298.15 K, x1 = 1): 21.89 ± 0.25 mN/m; mass density ([2]; 298.15 K, x1 = 1): 866.25 ± 0.34 kg/m3; surface tension liquid-gas ([2]; 308.15 K, x1 = 1): 20.81 ± 0.24 mN/m; mass density ([2]; 308.15 K, x1 = 1): 854.54 ± 0.36 kg/m3; surface tension liquid-gas ([2]; 313.15 K, x1 = 1): 20.29 ± 0.24 mN/m; mass density ([2]; 313.15 K, x1 = 1): 848.61 ± 0.37 kg/m3
7 | CC(=O)OC(C)C [1-methylethyl ethanoate] + Cc1ccc(C)c(C)c1 | – | – | – | – | – | – | surface tension liquid-gas ([2]; 298.15 K, x1 = 1): 21.89 ± 0.25 mN/m; mass density ([2]; 298.15 K, x1 = 1): 866.25 ± 0.44 kg/m3; surface tension liquid-gas ([2]; 308.15 K, x1 = 1): 20.81 ± 0.24 mN/m; mass density ([2]; 308.15 K, x1 = 1): 854.54 ± 0.46 kg/m3; surface tension liquid-gas ([2]; 313.15 K, x1 = 1): 20.29 ± 0.24 mN/m; mass density ([2]; 313.15 K, x1 = 1): 848.61 ± 0.47 kg/m3
8 | CC(=O)OCC(C)C [2-methylpropyl ethanoate] | 23.15 ± 0.35 mN/m | 866.06 ± 1.2 kg/m3 | 22.16 ± 0.33 mN/m | 855.51 ± 1.2 kg/m3 | 21.64 ± 0.33 mN/m | 850.16 ± 1.2 kg/m3 | –
